From US20180360705A1, “TOPICAL DELIVERY SYSTEM FOR ACTIVE INREDIENTS” (L'OREAL, priority 2015, published 2018)

Test: Maximum solubility of active ingredient in oils
Type: physicochemical
Settings: room temperature, atmospheric pressure
Method: The maximum solubility of the active ingredients in the oil phase can be measured in any way which is known in the art. For example, an excess amount of the active ingredient is dissolved in the oil and mixed vigorously at elevated temperature, and then this sample is cooled down to room temperature and maintained for several hours to days. This mixture is centrifuged to separate an oil phase and the concentration of the active ingredient in the separated oil phase is measured using UV spectroscopy.
In the representative examples of the active ingredients of the present invention, the maximum solubilities of phenylethyl resorcinol and 4-(tetrahydro-2H-pyran-4-yl) benzene-1,3-diol in various oils measured at room temperature and under atmospheric pressure are shown below.

maximum solubility in oil (Isododecane): 0.043% | maximum solubility in oil (Isopropyl Lauroyl Sarcosinate): 42% | maximum solubility in oil (Isopropyl Myristate): 36% | maximum solubility in oil (Sesamum Indicum (Sesame) Seed Oil): 23%
SMILES: CC(c1ccccc1)c1ccc(O)cc1O (stereo not shown) [Phenylethyl Resorcinol]
